For data set [1], the target named is T1, FKBP35 (Plasmodium falciparum, UniProt Q8I4V8).
T1 construct: FKBP35 Q5 -A128; 6His-SUMO (N, cleaved yes); made in house; host or cells: E. coli BL21 DE3
Put plainly: Time course of covalent modification by LC-MS. The settings on record: for K, rate of FKBP35 consumption: 2250 nM inhibitor : 450 nM FKBP35, 23 °C, one phase decay fit; for K’, rate of covalent adduct formation: 2250 nM inhibitor : 450 nM FKBP35, exponential plateau fit. It counts as biochemical. From the text: RT=5.2). B. Overlay of mass determinations from LC traces in (A). FBD35 only (black, m/z = […]
chromatogram corresponding to Figure 4c detecting the CAM -peptide […] at […]
m/z 855.8668. D. Mass spec chromatogram corresponding to Figure 4d detecting the CAM - […]
peptide […] at m/z 855.8670. E. Mass spec chromatogram corresponding to Figure 4e which was unable to detect the mass of the 1c-inclusion peptide. F. Mass spec chromatogram corresponding to Figure 4f detecting the 1c-inclusion peptide […]
Figure S2. Time course of covalent modification. In order to compare rates of covalent modification, compounds 1a-c, 2a, and 2c were incubated with FKBP35 in a 5:1 ratio (2250 nM inhibitor : 450 nM FKBP35) and FKBP35 consumption or modification determined by LC -MS. A.
The concentration of residual FKBP35 as a function of time. Data was fit to an exponential “one phase decay” model which was used to calculate the rate (K) and half -life (t1/2) of the reaction.
The loss of FKBP35 in the DMSO and 1b controls is likely due to adsorption onto the vial. B.
Concentration of covalent adduct as a function of time. Data was fit to an “exponential plateau” regression model, which was used to calculate the rate of formation (K’). Compound 1b, which […]
C. Tabulated rates calculated from the regressions in A and B. The rates of FKBP35 consumption correlate strongly with the rates of […]
(also on this page, place not known: -inclusion 1c 0 20 40 60 0 200 400 600 Time (hours) FKBP35 (nM) Consumption of FKBP35 1a 1b 1c 2a 2c DMSO 0 20 40 60 0 200 400 600 Time (hours) Covalent Adduct (nM) Formation of Covalent Adduct 1a 1b 1c 2a 2c A B) […]
(1 picture or pasted object on this page, not shown here)
Experiments were performed using 0.4 mg/mL concentration of wild -type or mutant protein (6 - 9 uM), with and without synthes ized compounds at 40 µM and 2% DMSO (V/V). The respective reference scans were run under identical DSC conditions and subtracted from each sample scan.
The program was run in a continuous acquisition mode from 25°C to 90°C at a rate of 120C/h The heat capacity curves and midpoint temperature (Tm) were analyzed using Origin 7.0 software.
Fluorescence Polarization
The fluorescent tracer SLFb-2PEG-TAMRA was diluted in DMSO to 100 nM (100x stock concentration). FKBP proteins were diluted in assay buffer (150 mM NaCl, 20 mM HEPES pH 7.5, 0.002% Triton X -100) to the indicated concentration. 100x DMSO tracer stock was added to the protein buffer solution to a 1X final concentration and 20 µL of the mixture was aliquoted into each well of a black 384 -well assay plate (No. 3820, Corning Life Sciences). The plate was briefly centrifuged to remove bubbles. Using a d300e digital dispenser (Tecan), competitive ligands (10 mM stock in DMSO) were aliquoted in triplicate in an 8 -point 3x dilution series (30 µM to 13.7 nM final concentra tion) and normalized to 2% total DMSO concentration. Following incubation at room temperature (RT) for one hour, fluorescence polarization was measured using an EnVision Multimode Plate Reader (PerkinElmer) with the TAMRA Dual -FP mirror and filter kit. […]
analyzed in GraphPad Prism 8 by fitting the data to the “One Site – Fit Ki” model to obtain the […]
Time Course Analysis of Covalent Inhibition
The following analy sis was performed as described on two different days, yielding similar results.
One replicate is shown for clarity. In 1.5 mL snap -top tubes, ligands 1a, 1b, 1c, 2a, and 2c were each diluted to 450 μM in DMSO to produce 200x stock solutions. In a separate 1.5 mL snap-top tube, isolated FKBP35 protein was diluted to 90 μM in the reaction buffer (150 mM NaCl, 20 mM HEPES pH = 7.5) to produce a 200x stock solution. In 2 mL glass mass spec vials, 5 μL of each 200x ligand solution was diluted in 990 μL reaction buffer. Immediately prior to injection of each t=0 time point, 5 μL of the 200x protein solution was added to the mass spec vial and mixed. Samples were analyzed using the Waters BioAccord LC-ToF (composed of an ACQUITY I -Class UPLC and […]

The nature of data set [2]: Plasma stability assay, human. It counts as in vitro ADME. The settings on record: percent remaining, 1 µM, 37 °C, 5 hours. The method, then: In 96-well round-bottom plates, sorbitol -synchronized cultures of ring-stage NF54 P. falciparum parasites were established in triplicate and treated with varying concentrations of the inhibitors (25-0.0038 μM) serially diluted in complete medium. Parasite proliferation rates were analyzed after 72 h using the Renilla-Glo Luciferase Assay, and luminescence was measured using the GloMax® Discover Microplate Reader. EC 50 values were obtained from corrected dose-response curves using GraphPad Prism (version 5; GraphPad Software). Data represent the mean % luminescence relative to 5% DMSO-treated (vehicle, 100% growth) and 100 nM chloroquine-treated (no growth) controls.
In black, clear-bottom 96-well plates (No. 3904 Corning Life Sciences), HEK293T cells were plated at 2x10^5 cells/mL in DMEM high glucose, pyruvate media (ThermoFisher Scientific, cat. 11995073) supplemented with 10% FBS and 1% pen -strep (100 μL final volume). Cells were incubated overnight at 37°C, 5% CO2. Using a Tecan D300e digital dispenser, cells were dosed in triplicate […]
concentration, 100 mM stock in DMSO) and Carfilzomib (10 µM to 4.6 nM final concentration, 10 mM stock in DMSO) normalizing DMSO to 0.25%. Cells were then incubated at 37 °C, 5% CO2 for 72 hours. Following incubation, cells were treated with 70 µL CellTiter-Glo® Luminescent Cell Viability Assay Reagent (Promega, cat. G7570) and incubated in the dark at room temperature for 30 minutes. Plates were read using an EnVision Multimode Plate Reader (PerkinElmer). Cell viability data was normalized to DMSO controls and analyzed in GraphPad Prism 8 by fitting the data to “[Inhibitor] vs. normalized response – variable slope” model to obtain the curves.
Each compound was prepared in duplicate at 1 µM final concentration (0.2% DMSO) in human or mouse plasma (Aldrich). Samples were incubated at 37 °C for 5 hours with mixing at 350 rpm on an orbital shaker. Aliquots of each sample were taken at time zero and following 5 hours. Each sample was quenched by adding acetonitrile in a 3:1 ratio and further diluting with 50 µl of PBS.
After quenching, samples were centrifuged to pellet precipitated partic ulates and an aliquot of supernatant was diluted 1:1 with water. The resulting solution was analyzed by UPLC -MS/MS with compounds detected by MRM detection on a triple quadrupole mass spectrometer. The ratio of compound peak areas at 0 and 5 hours were use d to calculate the percent remaining.

Entries after “also recorded” stand apart in the source; their conditions may differ.

T1 sequence (Q8I4V8 5-128): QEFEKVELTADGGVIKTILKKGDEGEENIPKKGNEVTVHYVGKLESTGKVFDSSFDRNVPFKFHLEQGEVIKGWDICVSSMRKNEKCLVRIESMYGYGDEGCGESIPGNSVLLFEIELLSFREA

`C=CC(=O)Nc1cccc([C@@H](CCc2ccc(OC)c(OC)c2)OC(=O)[C@@H]2CCCCN2C(=O)C(=O)C(C)(C)CC)c1` [1a]: in data set [1], the “K, rate of FKBP35 consumption” value was 0.0724 h⁻¹ and the “K’, rate of covalent adduct formation” value is 0.05948 h⁻¹. The “Plasma Stability (human)” value in data set [2] is 92%.
Take `CCC(=O)Nc1cccc([C@@H](CCc2ccc(OC)c(OC)c2)OC(=O)[C@@H]2CCCCN2C(=O)C(=O)C(C)(C)CC)c1` [1b]: the “covalent adduct formation (in words)” value in data set [1] (LC-MS time course) is given as “no binding; also recorded: does not form any adduct”. In addition, the “Plasma Stability (human)” value in data set [2] came to 90%.
On to `C=CC(=O)Nc1ccccc1[C@@H](CCc1ccc(OC)c(OC)c1)OC(=O)[C@@H]1CCCCN1C(=O)C(=O)C(C)(C)CC` [1c], for which, in data set [1], the “K, rate of FKBP35 consumption” value was determined as 0.1132 h⁻¹ and the “K’, rate of covalent adduct formation” value came to 0.1128 h⁻¹. The “Plasma Stability (human)” value in data set [2] is recorded as 62%.
Taken in the same sequence, the figures for `C=CC(=O)OCC(C)(C)C(=O)C(=O)N1CCCC[C@H]1C(=O)O[C@H](CCc1ccc(OC)c(OC)c1)c1ccccc1` [2c] were 0.8871 h⁻¹, 0.9298 h⁻¹ and 0%.
